Measured values published in patent publication US20080248012A1, “Erythrocyte Function Modifying Substance” (KEIO UNIVERSITY, priority 2004, published 2008).
“Also recorded” adds a separate entry of the source.

Tested on: human erythrocytes
Assay: ATP release from erythrocytes at adjusted oxygen / CO2 partial pressure, luciferin assay
Format: cell-based
Conditions: for ATP release from erythrocytes in relation to oxygen partial pressure: PO2 0-150 mmHg, 37° C., 5 min, bezafibrate 10^−4 mol/L (30 min), 100% CO gas 1 min, NO 0.5 equivalents to hemoglobin; for ATP release at various CO2 partial pressures: PCO2 0 to 80 mmHg, 5 minutes
Protocol: Human peripheral blood sample (20 ml) was taken, heparinized and centrifuged at 2000 rpm for 7 minutes. The erythrocyte pellet was collected and washed. Then, an erythrocyte suspension (1×10^7 cells/ml) was prepared with Krebs buffer. A tightly sealed cuvette containing 1.8 ml of Krebs buffer in which oxygen concentration is adjusted at a desired level within a range of 0-150 mmHg was incubated at 37° C. A 200 μl aliquot of the erythrocyte suspension was injected into the tightly sealed cuvette with a microsyringe. After 5 minutes, the cuvette was placed in ice at 4° C. to terminate the reaction. A 200 μd sample was taken while it was still 4° C., and centrifuged. The ATP in the resultant supernatant was quantitatively determined by luciferin assay.
In this example, the effects of carbon monoxide-saturated erythrocytes (CO-Hb) and NO treated erythrocytes (αNO-Hb) on ATP release were examined. The method was as described in Example 1 above. In order to examine the effect of NO, an experiment was conducted using erythrocytes prepared as described below. Briefly, collected erythrocytes were completely deoxygenated by feeding argon gas. Then, NO-glutathione was added thereto so that the concentration of this substance to the concentration of Hb was 1:2. Several minutes after the addition, the erythrocytes were centrifuged and recovered. The hemoglobin contained in the above erythrocytes is expressed as “αNO-Hb”.
Briefly, adenosine was added to the extracellular fluid of erythrocytes for 5 minutes. To a tightly sealed cuvette containing Krebs buffer adjusted to have a desired oxygen partial pressure within a range of 0-150 mmHg, the erythrocyte suspension was injected and the reaction was terminated 1 minute thereafter.
The method used was according to the method in Example 1. The amounts of ATP release when erythrocytes were exposed to various CO2 partial pressures (PCO2) from 0 to 80 mmHg for 5 minutes were measured.

For [N]=O [NO, nitric oxide], the “ATP release from erythrocytes in relation to oxygen partial pressure” value (“ATP release from erythrocytes” below) was “released ATP constantly regardless of the oxygen concentration”.
O=C=O [carbon dioxide] was tested, and the “ATP release at various CO2 partial pressures” value (Anoxia (no oxygen state)) was “not affected by PCO2” and the “ATP release at various CO2 partial pressures” value (Normoxia) was “increased at 60-80 mmHg”.
With [C-]#[O+] [CO, carbon monoxide] the “ATP release from erythrocytes” value was “this ability was completely eliminated” and the “ATP release from erythrocytes” value (listed as carbon monoxide) was “released little ATP regardless of the oxygen partial pressure”.
With N[C@@H](CCC(=O)N[C@@H](CSN=O)C(=O)NCC(=O)O)C(=O)O [NO derivative, NO-glutathione] the “ATP release from erythrocytes” value was “released ATP constantly regardless of the oxygen partial pressure”.
With Nc1ncnc2c1ncn2[C@@H]1O[C@H](CO)[C@@H](O)[C@H]1O [adenosine] the “enhancement of ATP release under normal oxygen concentration” value (1 μmol/L adenosine in extracellular fluid 5 min) was “enhanced almost two times”, the “enhancement of ATP release under no oxygen or low oxygen” value (1 μmol/L adenosine in extracellular fluid 5 min, then no/low oxygen 1 minute) was “enhanced almost two times; also recorded: increases ATP release about two times; also recorded: enhanced about two times” and the “ATP release enhancement, adenosine combined with carbon dioxide” value (Normoxia, raised PCO2, in the presence of adenosine) was “synergetic high effect”.
For O=S(=O)(O)c1cc(N=C=S)ccc1C=Cc1ccc(N=C=S)cc1S(=O)(=O)O [DIDS, 4,4′-diisothiocyanate-stilbene-2,2′-disulfonic acid], the “ATP release increase due to low oxygen” value (10^−4 mol/L DIDS, oxygen partial pressures of 0-140 mmHg) was “inhibits ATP release increase due to low oxygen”, the “amount of ATP release, DIDS addition vs no addition” value (CO(+) erythrocytes, presence/absence of adenosine) was “no difference” and the “ATP release increase due to low oxygen, concentration-dependent effect” value (CO-untreated erythrocytes, Anoxia 0 mmHg vs Normoxia) was “inhibited depending on the concentration of DIDS”.
